{"source": "PubChem BioAssay (NCI)", "assay_in_all_cases": "inhibition of tumour cell growth, NCI panel, 48 h", "key": {"786-0 renal": {"tested_on": "786-0 renal"}, "A498 renal": {"tested_on": "A498 renal"}, "A549 NSCLC": {"tested_on": "A549 NSCLC"}, "ACHN renal": {"tested_on": "ACHN renal"}, "BT-549 breast": {"tested_on": "BT-549 breast"}, "CAKI-1 renal": {"tested_on": "CAKI-1 renal"}, "CCRF-CEM leukemia": {"tested_on": "CCRF-CEM leukemia"}, "COLO 205 colon": {"tested_on": "COLO 205 colon"}, "DU-145 prostate": {"tested_on": "DU-145 prostate"}, "EKVX NSCLC": {"tested_on": "EKVX NSCLC"}, "HCC-2998 colon": {"tested_on": "HCC-2998 colon"}, "HCT-116 colon": {"tested_on": "HCT-116 colon"}, "HCT-15 colon": {"tested_on": "HCT-15 colon"}, "HL-60(TB) leukemia": {"tested_on": "HL-60(TB) leukemia"}, "HOP-62 NSCLC": {"tested_on": "HOP-62 NSCLC"}, "HOP-92 NSCLC": {"tested_on": "HOP-92 NSCLC"}, "HS 578T breast": {"tested_on": "HS 578T breast"}, "HT29 colon": {"tested_on": "HT29 colon"}, "IGROV1 ovarian": {"tested_on": "IGROV1 ovarian"}, "K-562 leukemia": {"tested_on": "K-562 leukemia"}, "KM12 colon": {"tested_on": "KM12 colon"}, "LOX IMVI melanoma": {"tested_on": "LOX IMVI melanoma"}, "M14 melanoma": {"tested_on": "M14 melanoma"}, "MALME-3M melanoma": {"tested_on": "MALME-3M melanoma"}, "MCF7 breast": {"tested_on": "MCF7 breast"}, "MDA-MB-231 breast": {"tested_on": "MDA-MB-231 breast"}, "MDA-MB-435": {"tested_on": "MDA-MB-435"}, "MDA-N": {"tested_on": "MDA-N"}, "MOLT-4 leukemia": {"tested_on": "MOLT-4 leukemia"}, "NCI-H226 lung": {"tested_on": "NCI-H226 lung"}, "NCI-H23 lung": {"tested_on": "NCI-H23 lung"}, "NCI-H460 lung": {"tested_on": "NCI-H460 lung"}, "NCI-H522 lung": {"tested_on": "NCI-H522 lung"}, "NCI/ADR-RES ovarian": {"tested_on": "NCI/ADR-RES ovarian"}, "OVCAR-3 ovarian": {"tested_on": "OVCAR-3 ovarian"}, "OVCAR-4 ovarian": {"tested_on": "OVCAR-4 ovarian"}, "OVCAR-5 ovarian": {"tested_on": "OVCAR-5 ovarian"}, "OVCAR-8 ovarian": {"tested_on": "OVCAR-8 ovarian"}, "PC-3 prostate": {"tested_on": "PC-3 prostate"}, "RPMI-8226 leukemia": {"tested_on": "RPMI-8226 leukemia"}, "RXF 393 renal": {"tested_on": "RXF 393 renal"}, "SF-268 CNS": {"tested_on": "SF-268 CNS"}, "SF-295 CNS": {"tested_on": "SF-295 CNS"}, "SF-539 CNS": {"tested_on": "SF-539 CNS"}, "SK-MEL-2 melanoma": {"tested_on": "SK-MEL-2 melanoma"}, "SK-MEL-28 melanoma": {"tested_on": "SK-MEL-28 melanoma"}, "SK-MEL-5 melanoma": {"tested_on": "SK-MEL-5 melanoma"}, "SK-OV-3 ovarian": {"tested_on": "SK-OV-3 ovarian"}, "SN12C renal": {"tested_on": "SN12C renal"}, "SNB-19 CNS": {"tested_on": "SNB-19 CNS"}, "SNB-75 CNS": {"tested_on": "SNB-75 CNS"}, "SW-620 colon": {"tested_on": "SW-620 colon"}, "T-47D breast": {"tested_on": "T-47D breast"}, "TK-10 renal": {"tested_on": "TK-10 renal"}, "U251 CNS": {"tested_on": "U251 CNS"}, "UACC-257 melanoma": {"tested_on": "UACC-257 melanoma"}, "UACC-62 melanoma": {"tested_on": "UACC-62 melanoma"}, "UO-31 renal": {"tested_on": "UO-31 renal"}}, "note": "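Interpolation was linear, between the two tested concentrations surrounding the appropriate level; five concentrations were tested over 48 hours in 96-well plates. The concentration for full growth arrest is given as TGI.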", "data": [{"smiles": "C=CS(=O)(=O)c1c2cc(OC)ccc2nc2ccc(OC)cc12", "values": [{"measurement": "TGI", "setting": "786-0 renal", "result": 7.82, "unit": "µM"}, {"measurement": "TGI", "setting": "A498 renal", "result": 27.7, "unit": "µM"}, {"measurement": "TGI", "setting": "A549 NSCLC", "result": "> 47.1", "unit": "µM"}, {"measurement": "TGI", "setting": "ACHN renal", "result": 24.5, "unit": "µM"}, {"measurement": "TGI", "setting": "BT-549 breast", "result": 22.4, "unit": "µM"}, {"measurement": "TGI", "setting": "CAKI-1 renal", "result": 14.9, "unit": "µM"}, {"measurement": "TGI", "setting": "CCRF-CEM leukemia", "result": "> 23.4", "unit": "µM"}, {"measurement": "TGI", "setting": "COLO 205 colon", "result": "> 42.3", "unit": "µM"}, {"measurement": "TGI", "setting": "DU-145 prostate", "result": 19.8, "unit": "µM"}, {"measurement": "TGI", "setting": "EKVX NSCLC", "result": 21.1, "unit": "µM"}, {"measurement": "TGI", "setting": "HCC-2998 colon", "result": 24.8, "unit": "µM"}, {"measurement": "TGI", "setting": "HCT-116 colon", "result": 5.02, "unit": "µM"}, {"measurement": "TGI", "setting": "HCT-15 colon", "result": "> 33.9", "unit": "µM"}, {"measurement": "TGI", "setting": "HL-60(TB) leukemia", "result": "> 100", "unit": "µM"}, {"measurement": "TGI", "setting": "HOP-62 NSCLC", "result": 32.8, "unit": "µM"}, {"measurement": "TGI", "setting": "HOP-92 NSCLC", "result": "> 51.1", "unit": "µM"}, {"measurement": "TGI", "setting": "HS 578T breast", "result": 11.9, "unit": "µM"}, {"measurement": "TGI", "setting": "HT29 colon", "result": 10.7, "unit": "µM"}, {"measurement": "TGI", "setting": "IGROV1 ovarian", "result": 12.5, "unit": "µM"}, {"measurement": "TGI", "setting": "K-562 leukemia", "result": "> 23.4", "unit": "µM"}, {"measurement": "TGI", "setting": "KM12 colon", "result": 28.8, "unit": "µM"}, {"measurement": "TGI", "setting": "LOX IMVI melanoma", "result": 7.16, "unit": "µM"}, {"measurement": "TGI", "setting": "M14 melanoma", "result": "> 49.7", "unit": "µM"}, {"measurement": "TGI", "setting": "MALME-3M melanoma", "result": 4.89, "unit": "µM"}, {"measurement": "TGI", "setting": "MCF7 breast", "result": "> 25.7", "unit": "µM"}, {"measurement": "TGI", "setting": "MDA-MB-231 breast", "result": 50.7, "unit": "µM"}, {"measurement": "TGI", "setting": "MDA-MB-435", "result": 22.7, "unit": "µM"}, {"measurement": "TGI", "setting": "MDA-N", "result": 11.3, "unit": "µM"}, {"measurement": "TGI", "setting": "MOLT-4 leukemia", "result": "> 100", "unit": "µM"}, {"measurement": "TGI", "setting": "NCI-H226 lung", "result": 35.1, "unit": "µM"}, {"measurement": "TGI", "setting": "NCI-H23 lung", "result": 28.2, "unit": "µM"}, {"measurement": "TGI", "setting": "NCI-H460 lung", "result": "> 44.3", "unit": "µM"}, {"measurement": "TGI", "setting": "NCI-H522 lung", "result": 3.74, "unit": "µM"}, {"measurement": "TGI", "setting": "NCI/ADR-RES ovarian", "result": 76.2, "unit": "µM"}, {"measurement": "TGI", "setting": "OVCAR-3 ovarian", "result": 15.8, "unit": "µM"}, {"measurement": "TGI", "setting": "OVCAR-4 ovarian", "result": 30, "unit": "µM"}, {"measurement": "TGI", "setting": "OVCAR-5 ovarian", "result": "> 36.9", "unit": "µM"}, {"measurement": "TGI", "setting": "OVCAR-8 ovarian", "result": 15.4, "unit": "µM"}, {"measurement": "TGI", "setting": "PC-3 prostate", "result": 23.3, "unit": "µM"}, {"measurement": "TGI", "setting": "RPMI-8226 leukemia", "result": 7.28, "unit": "µM"}, {"measurement": "TGI", "setting": "RXF 393 renal", "result": 18.4, "unit": "µM"}, {"measurement": "TGI", "setting": "SF-268 CNS", "result": 33.4, "unit": "µM"}, {"measurement": "TGI", "setting": "SF-295 CNS", "result": 32.3, "unit": "µM"}, {"measurement": "TGI", "setting": "SF-539 CNS", "result": "> 21.2", "unit": "µM"}, {"measurement": "TGI", "setting": "SK-MEL-2 melanoma", "result": 51.3, "unit": "µM"}, {"measurement": "TGI", "setting": "SK-MEL-28 melanoma", "result": 45.6, "unit": "µM"}, {"measurement": "TGI", "setting": "SK-MEL-5 melanoma", "result": 27, "unit": "µM"}, {"measurement": "TGI", "setting": "SK-OV-3 ovarian", "result": 33.1, "unit": "µM"}, {"measurement": "TGI", "setting": "SN12C renal", "result": 8.21, "unit": "µM"}, {"measurement": "TGI", "setting": "SNB-19 CNS", "result": 45.1, "unit": "µM"}, {"measurement": "TGI", "setting": "SNB-75 CNS", "result": 26.3, "unit": "µM"}, {"measurement": "TGI", "setting": "SW-620 colon", "result": "> 20.7", "unit": "µM"}, {"measurement": "TGI", "setting": "T-47D breast", "result": 35.5, "unit": "µM"}, {"measurement": "TGI", "setting": "TK-10 renal", "result": 23.5, "unit": "µM"}, {"measurement": "TGI", "setting": "U251 CNS", "result": "> 52.6", "unit": "µM"}, {"measurement": "TGI", "setting": "UACC-257 melanoma", "result": 24, "unit": "µM"}, {"measurement": "TGI", "setting": "UACC-62 melanoma", "result": 31.3, "unit": "µM"}, {"measurement": "TGI", "setting": "UO-31 renal", "result": "> 27.4", "unit": "µM"}]}]}
